Measured values taken from US20230264009A1, “DISINFECTING CAP KIT FOR LUER ACCESS DEVICES” (SterileCare Inc., priority 2022, published 2023).

Columns and labels:
E. coli SK2 [1] = assay: MIC, micro broth dilution; assay type: cell-based, Escherichia coli; settings: alone, 24 h
Protocol: (§1) An assay was made using a minimum inhibitory concentration (MIC) and minimum bactericidal concentration (MBC) and minimum fungicidal concentration (MFC) determination. The MIC was determined by the micro broth dilution method in 96-well plates. Serial two-fold dilutions of tetrasodium EDTA (from 2% to 0.015%), ethanol (from 50% to 0.1%) and chlorhexidine HCl (from 100 µg/mL to 0.025 µg/mL) were prepared in MH broth with a final volume of 90 µL per well. A 10 µL containing 1 × 10^5 bacterial cells or 2 × 10^3 fungal cells were added to each well. The inoculated plates were covered with a lid, sealed with Parafilm, and incubated for 24 h at 37° C. with slight rocking on a tilting platform shaker. After incubation, the optical density at 600 nm (OD 600 ) of the cultures in each well was measured using an xMark™ Microplate Absorbance Spectrophotometer (Bio-Rad). […] MBCs and MFCs were determined by transferring 100 µL from each well with no apparent growth onto appropriate agar plates, followed by incubation for 24 h at 37° C.

Candida albicans SK4b = assay: Checkerboard titration, FICI; assay type: cell-based; settings: C. albicans SK4b
Protocol: (§2) A fourth composition and solution included tetrasodium EDTA with ethanol or chlorhexidine HCl. This fourth composition and solution were created using checkerboard titration methods using micro broth dilution in 96-well microtiter plates. The concentrations of antimicrobials used were based on previously determined MIC values. Briefly, 200 µL of two-fold dilutions of tetrasodium EDTA and ethanol or chlorhexidine HCl were prepared in MH or MH II broth with standardized cell suspension. […] Microtiter plates were incubated at 37° C. for 24 h, and the results were analyzed. Each test was performed in duplicate and included a growth control without adding any antimicrobials.

Escherichia coli ON29 = assay: Checkerboard titration, FICI; assay type: cell-based; settings: E. coli ON29
Protocol: as §2

Proteus mirabilis ON153 = assay: Checkerboard titration, FICI; assay type: cell-based; settings: P. mirabilis ON153
Protocol: as §2

[2] = test system: Pseudomonas aeruginosa SK1; assay: Checkerboard titration, FICI; assay type: cell-based; settings: P. aeruginosa SK1
Protocol: as §2

Serratia marcescens SK2 = assay: Checkerboard titration, FICI; assay type: cell-based; settings: S. marcescens SK2
Protocol: as §2

[3] = test system: Staphylococcus aureus ON89; assay: Checkerboard titration, FICI; assay type: cell-based; settings: S. aureus ON89
Protocol: as §2

[4] = test system: Staphylococcus epidermidis ON170; assay: Checkerboard titration, FICI; assay type: cell-based; settings: S. epidermidis ON170
Protocol: as §2

[5] = test system: Stenotrophomonas maltophilia ON17; assay: Checkerboard titration, FICI; assay type: cell-based; settings: S. maltophilia ON17
Protocol: as §2

E. coli SK2 [6] = assay: Checkerboard titration, FICI; assay type: cell-based, Escherichia coli
Protocol: as §2

S. epidermidis SK9 = assay: Checkerboard titration, FMCI; assay type: cell-based, Staphylococcus epidermidis
Protocol: as §1, §2

[7] = test system: Candida albicans SK4b biofilm; assay: MBEC Assay, 48-h biofilm, 24 h exposure; assay type: cell-based; settings: C. albicans SK4b
Protocol: (§3) A biofilm cultivation cell composition was provided. This fifth composition was created using an MBEC Assay® biofilm inoculator, consisting of a polystyrene lid with 96 downward-protruding pegs and a corresponding base used to grow biofilms. A standardized inoculum was diluted in an appropriate biofilm growth medium to achieve a viable cell count of 1.5 × 10^6 CFU/mL of bacterial cells or […] CFU/mL of fungal cells. Then, 150 µL of this inoculum was transferred into each appropriate well, and the peg lids were inserted into the microtiter plates. The plates were sealed with Parafilm and were incubated at optimum temperature for 48 h with slight rocking for bacteria and shaking at 200 rpm for fungal strains. After incubation, the peg lid was removed from the base and rinsed twice with sterile phosphate-buffered saline (PBS) for 2 min to remove loosely attached non-sessile cells. Before the antimicrobial challenge, the pegs in column 1 (n = 8) were considered the biofilm growth control; these pegs were removed from the lids, placed into 200 µL of recovery medium, and analyzed for starting biofilm cell numbers as described below. The rinsed pegs were placed into new 96-well plates containing two-fold dilutions of antimicrobials such as tetrasodium EDTA (4 %-0.0125%), ethanol (100%-0.2%), and chlorhexidine HCl (100 µg/mL-0.4 µg/mL) in 200 µL of suitable biofilm growth medium per well and incubated at optimum temperature for 24 h. After the antimicrobial challenge, the pegs were rinsed twice with sterile PBS for 2 min and placed into a new 96-well plate containing 200 µL of recovery medium. The recovery plates were sealed with Parafilm, and biofilm cells were dislodged from the pegs by sonication for 30 min with a Branson 3510 bath sonicator. The biofilm cells in the recovery medium were serially diluted, and a drop dilution assay was performed to enumerate the viable cells. MBEC values were determined as the minimum concentration of antimicrobials that yielded a viable cell count at or lower than the 125 CFU/mL detection limit.

[8] = test system: Escherichia coli SK2 biofilm; assay: MBEC Assay, 48-h biofilm, 24 h exposure; assay type: cell-based; settings: E. coli SK2
Protocol: as §3

[9] = test system: Proteus mirabilis ON153 biofilm; assay: MBEC Assay, 48-h biofilm, 24 h exposure; assay type: cell-based; settings: P. mirabilis ON153
Protocol: as §3

[10] = test system: Pseudomonas aeruginosa SK1 biofilm; assay: MBEC Assay, 48-h biofilm, 24 h exposure; assay type: cell-based; settings: P. aeruginosa SK1
Protocol: as §3

[11] = test system: Staphylococcus aureus ON89 biofilm; assay: MBEC Assay, 48-h biofilm, 24 h exposure; assay type: cell-based; settings: S. aureus ON89
Protocol: as §3

[12] = test system: Staphylococcus epidermidis SK9 biofilm; assay: MBEC Assay, 48-h biofilm, 24 h exposure; assay type: cell-based; settings: S. epidermidis SK9
Protocol: as §3

MRSA ON184 biofilm = assay: MBEC Assay, 48-h biofilm, 24 h exposure; assay type: cell-based, Staphylococcus aureus
Protocol: A biofilm cultivation cell composition was provided. This fifth composition was created using an MBEC Assay® biofilm inoculator, consisting of a polystyrene lid with 96 downward-protruding pegs and a corresponding base used to grow biofilms. A standardized inoculum was diluted in an appropriate biofilm growth medium to achieve a viable cell count of 1.5 × 10^6 CFU/mL of bacterial cells or […] CFU/mL of fungal cells. Then, 150 µL of this inoculum was transferred into each appropriate well, and the peg lids were inserted into the microtiter plates. The plates were sealed with Parafilm and were incubated at optimum temperature for 48 h with slight rocking for bacteria and shaking at 200 rpm for fungal strains. After incubation, the peg lid was removed from the base and rinsed twice with sterile phosphate-buffered saline (PBS) for 2 min to remove loosely attached non-sessile cells. Before the antimicrobial challenge, the pegs in column 1 (n = 8) were considered the biofilm growth control; these pegs were removed from the lids, placed into 200 µL of recovery medium, and analyzed for starting biofilm cell numbers as described below. […] MBEC values were determined as the minimum concentration of antimicrobials that yielded a viable cell count at or lower than the 125 CFU/mL detection limit.

[13] = test system: Staphylococcus epidermidis SK9 biofilm; assay: FBEC index, checkerboard dilution on biofilms; assay type: cell-based; settings: S. epidermidis SK9 biofilm
Protocol: In step (4), microtiter plates are incubated at 37° C. for 24 h. then (6), after incubation, the bacterial and fungal cells were dislodged from the pegs into the recovery medium described above.
Three 10-µL aliquots, for a total of 30 µL from each well of recovery medium, were spotted on MH agar plates and incubated for 24 h at 37° C. […] The FBEC determination is a modification of the FICI.

[14] = tetrasodium EDTA + chlorhexidine HCl

With O=C([O-])CN(CCN(CC(=O)[O-])CC(=O)[O-])CC(=O)[O-].[Na+].[Na+].[Na+].[Na+] [EDTA, tetrasodium EDTA] the MIC (E. coli SK2 [1]) was 0.5 % w/v, the “Concentration in combination giving FICI” value (Candida albicans SK4b; [14]) was 0.063 % w/v and the “Concentration in combination giving FICI” value (Candida albicans SK4b; tetrasodium EDTA + ethanol) was 0.25 % w/v. For the same molecule, the “Concentration in combination giving FICI” value (Escherichia coli ON29; [14]) was 0.008 % w/v, the “Concentration in combination giving FICI” value (Escherichia coli ON29; tetrasodium EDTA + ethanol) was 0.25 % w/v and the “Concentration in combination giving FICI” value (Proteus mirabilis ON153; [14]) was 0.063 % w/v. For the same molecule, the “Concentration in combination giving FICI” value (Proteus mirabilis ON153; tetrasodium EDTA + ethanol) was 0.5 % w/v, the “Concentration in combination giving FICI” value [2, 14] was 0.5 % w/v and the “Concentration in combination giving FICI” value ([2]; tetrasodium EDTA + ethanol) was 0.031 % w/v. The “Concentration in combination giving FICI” value (Serratia marcescens SK2; [14]) was 0.063 % w/v, the “Concentration in combination giving FICI” value (Serratia marcescens SK2; tetrasodium EDTA + ethanol) was 0.5 % w/v and the “Concentration in combination giving FICI” value [3, 14] was 0.008 % w/v. For the same molecule, the “Concentration in combination giving FICI” value ([3]; tetrasodium EDTA + ethanol) was 0.015 % w/v, the “Concentration in combination giving FICI” value [4, 14] was 0.063 % w/v and the “Concentration in combination giving FICI” value ([4]; tetrasodium EDTA + ethanol) was 0.015 % w/v. For the same molecule, the “Concentration in combination giving FICI” value [5, 14] was 0.015 % w/v, the “Concentration in combination giving FICI” value ([5]; tetrasodium EDTA + ethanol) was 0.031 % w/v and the “Concentration in combination giving FICI” value (E. coli SK2 [6]; [14]) was 0.008 % w/v. For the same molecule, the “Concentration in combination giving FICI” value (E. coli SK2 [6]; tetrasodium EDTA + ethanol) was 0.015 % w/v, the “Concentration in combination giving FMCI” value (S. epidermidis SK9; [14]) was 0.008 % w/v and the “Concentration in combination giving FMCI” value (S. epidermidis SK9; tetrasodium EDTA + ethanol) was 0.031 % w/v. The MBEC [7] was 1 % w/v, the MBEC [8] was 2 % w/v and the MBEC [9] was 4 % w/v. The MBEC [10] was 4 % w/v, the MBEC [11] was 4 % w/v and the MBEC [12] was 2 % w/v. The MBEC (MRSA ON184 biofilm) was 2 % w/v, the “FBEC (concentration in combination)” value [13, 14] was 0.125 % w/v and the “FBEC (concentration in combination)” value ([13]; tetrasodium EDTA + ethanol) was 0.031 % w/v.
